Laboratory results from the NIST ThermoML archive (doi:10.1021/je100260z).
Values joined by “and” are separate entries in the source; they are usually repeats but may differ in a detail not shown here. Equal entries are not always repeated.

Details: Crystal, Torsion effusion method

[F][Pb]([F])([F])[F] [lead(IV) fluoride]
Details | vapor or sublimation pressure [kPa]
603 K | 0.000566
612 K | 0.000677
622 K | 0.000844
628 K | 0.000844
631 K | 0.00097
634 K | 0.000942
635 K | 0.001062
638 K | 0.001116
639 K | 0.001116
644 K | 0.001259
645 K | 0.001139
647 K | 0.001209
648 K | 0.001336
653 K | 0.001297
654 K | 0.001492
657 K | 0.0016
658 K | 0.001448
663 K | 0.001584
664 K | 0.001751
666 K | 0.00184
668 K | 0.001751
669 K | 0.001896
670 K | 0.001974
673 K | 0.001878
675 K | 0.002096
676 K | 0.001974
682 K | 0.00234
684 K | 0.002203

[F][Pb][F] [lead(II) fluoride]
Details | vapor or sublimation pressure
793 K | 0.000361 kPa
798 K | 0.000411 kPa
803 K | 0.000411 kPa
808 K | 0.000454 kPa
810 K | 0.000454 kPa
811 K | 0.000487 kPa
816 K | 0.000522 kPa
818 K | 0.000554 kPa
820 K | 0.000554 kPa
824 K | 0.000613 kPa
825 K | 0.000613 kPa
827 K | 0.000613 kPa
830 K | 0.000638 kPa
833 K | 0.000664 kPa
835 K | 0.000705 kPa
837 K | 0.000748 kPa
840 K | 0.000771 kPa
841 K | 0.000748 kPa
845 K | 0.000861 kPa and 0.000827 kPa
846 K | 0.000827 kPa
852 K | 0.000951 kPa
854 K | 0.00098 kPa
856 K | 0.00101 kPa
858 K | 0.00098 kPa
859 K | 0.00098 kPa
863 K | 0.001116 kPa
867 K | 0.001185 kPa and 0.001116 kPa
868 K | 0.001234 kPa
873 K | 0.001323 kPa and 0.001284 kPa
875 K | 0.001323 kPa
876 K | 0.001284 kPa
878 K | 0.001391 kPa
882 K | 0.001507 kPa
883 K | 0.001477 kPa
884 K | 0.001419 kPa
886 K | 0.001507 kPa
890 K | 0.001632 kPa
891 K | 0.001682 kPa
895 K | 0.001716 kPa
899 K | 0.00184 kPa
900 K | 0.001896 kPa
903 K | 0.001916 kPa
904 K | 0.001916 kPa
905 K | 0.001896 kPa
910 K | 0.002138 kPa and 0.002117 kPa
912 K | 0.002075 kPa
913 K | 0.002096 kPa
914 K | 0.002203 kPa
919 K | 0.002387 kPa
921 K | 0.002411 kPa
923 K | 0.002387 kPa
928 K | 0.002638 kPa
931 K | 0.002664 kPa
933 K | 0.002746 kPa
934 K | 0.002801 kPa
948 K | 0.003456 kPa
951 K | 0.003669 kPa
